Measured values from patent publication US4791215A, “Derivatives of glutamic acid and aspartic acid” (priority 1984, dated 1988).

Assays:
morphine analgesia = assay: Increase in analgesia of morphine, Tail Flick Test (Experiment 1); format: in vivo, rats; conditions: for M (10-90) ± SE, mean percentage variation of latency: mean 10-90 min; for Power ratio with respect to morphine alone: rat, in vivo
Method in brief: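 Non-fasted male rats (150-200 g); a tail point is exposed to a 75 °C heat source and latency to tail movement recorded, 8 s cut-off. Readings taken before and 10, 20, 30, 45, 60 and 90 min after analgesic treatment; percentage variation calculated per animal.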

[1] = test system: endogenous opiates analgesia; assay: Analgesic activity of endogenous opiates released by transcutaneous shock, Tail Flick Test (Experiment 3); format: in vivo, rats
Procedure: Experiment No. 3: Influence of several of the compounds of the invention on the analgesic activities of endogenous opiates released by transcutaneous shock in rats and measured by the Tail Flick Test
The method is that described by Lewis et al. J. Neurosc. 1, 358 […]. Male rats which have not fasted and have a weight of about 200 g are used.
The animals are stressed by the application of a 60 Hz-2.5 mA current to the front leg in pulses of a duration of 1 second every 5 seconds for 20 minutes.
This stress regime induces the release of endogenous opiates.

[2] = test system: CCK-8 induced contraction of guinea pig gall bladder; assay: Anti-CCK activity on gall bladder strips in vitro; conditions: CCK-8 10 ng/ml
Method in brief: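 Longitudinal guinea pig gall bladder strips in Krebs at 32 °C, gassed with O2/CO2 95:5, were contracted with 10 ng/ml CCK-8. Isometric force was recorded across several compound concentrations, and ED50 was taken as the μg/ml concentration antagonising 50% of the CCK contraction.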

[3] = test system: tolerance induced by morphine; assay: Antagonism to development of tolerance to repeated morphine HCl, Tail Flick Test (Experiment 5)
Procedure: Experiment No. 5: Antagonism of several products of the invention to the development of tolerance induced in rats by the repeated administration of morphine HCl.
Several of the compounds of the invention were examined to determine their possible capacity to antagonise the development of tolerance induced by morphine. Groups of 6 male rats having a weight of about 200-250 grams were used.
At intervals of 24 hours from the first treatment (time 0) each animal (except the control group treated physiologically) received 5 mg/kg of morphine hydrochloride i.p. together with 10 mg/kg i.p. of the compounds indicated (with the exception of the group treated solely with morphine).
The determination of the pain threshold was effected 15', 30', 45' and 60' from the treatment by the Tail Flick Test.

[4] = test system: enkephalinamide (DALA) analgesia; assay: Potentiation of DALA (enkephalinamide) analgesia, i.c.v., Tail Flick Test (Experiment 4); format: in vivo, rats; design: scale not given here
Excerpt: Experiment No. 4: Potentiation of the analgesic activities of enkephalins induced by some of the compounds of the invention. […]

[5] = 10', compound 10 mg/kg i.p. + morphine 2 mg/kg
[6] = 20', compound 10 mg/kg i.p. + morphine 2 mg/kg
[7] = 30', compound 10 mg/kg i.p. + morphine 2 mg/kg
[8] = 45', compound 10 mg/kg i.p. + morphine 2 mg/kg
[9] = 60', compound 10 mg/kg i.p. + morphine 2 mg/kg
[10] = 90', compound 10 mg/kg i.p. + morphine 2 mg/kg
[11] = compound 10 mg/kg i.p. + morphine 2 mg/kg
[12] = compound 1 mg/kg iv + stress, 5'
[13] = compound 1 mg/kg iv + stress, 10'
[14] = compound 1 mg/kg iv + stress, 15'
[15] = compound 3 mg/kg iv + stress, 5'
[16] = compound 3 mg/kg iv + stress, 10'
[17] = compound 3 mg/kg iv + stress, 15'

CC(C)c1ccc(C(=O)NC(CCC(=O)N2CCCCC2)C(=O)O)cc1 (racemic) [Compound D-17]
percentage variation of latency of pain sensation (morphine analgesia; [5]): 62.3 ± 15% | percentage variation of latency of pain sensation (morphine analgesia; [6]): 92.9 ± 7% | percentage variation of latency of pain sensation (morphine analgesia; [7]): 100 ± 0% | percentage variation of latency of pain sensation (morphine analgesia; [8]): 100 ± 0% | percentage variation of latency of pain sensation (morphine analgesia; [9]): 100 ± 0% | percentage variation of latency of pain sensation (morphine analgesia; [10]): 100 ± 0% | M (10-90) ± SE, mean percentage variation of latency (morphine analgesia; [11]): 92.5 ± 15% | Power ratio with respect to morphine alone (morphine analgesia): 3.10 | average latency, Tail Flick [1, 12]: 6.18 ± 0.65 s | average latency, Tail Flick [1, 13]: 7.02 ± 0.76 s | average latency, Tail Flick [1, 14]: 5.31 ± 0.55 s | average latency, Tail Flick [1, 15]: 9.08 ± 0.55 s | average latency, Tail Flick [1, 16]: 9.08 ± 0.80 s | average latency, Tail Flick [1, 17]: 6.08 ± 0.98 s | ED50 (concentration antagonising 50% of contracting effect of CCK-8) [2]: > 300 µg/mL

CCCN(CCC)C(=O)C(CCC(=O)O)NC(=O)c1ccc(C(F)(F)F)cc1 (centres unmarked) [Compound C-39]
percentage variation of latency of pain sensation (morphine analgesia; [5]): 44.9 ± 15% | percentage variation of latency of pain sensation (morphine analgesia; [6]): 100.0 ± 0% | percentage variation of latency of pain sensation (morphine analgesia; [7]): 93.3 ± 7% | percentage variation of latency of pain sensation (morphine analgesia; [8]): 94.4 ± 6% | percentage variation of latency of pain sensation (morphine analgesia; [9]): 85.6 ± 7% | percentage variation of latency of pain sensation (morphine analgesia; [10]): 81.8 ± 10% | M (10-90) ± SE, mean percentage variation of latency (morphine analgesia; [11]): 83.3 ± 20% | Power ratio with respect to morphine alone (morphine analgesia): 2.79 | average latency, Tail Flick [1, 12]: 6.3 ± 0.4 s | average latency, Tail Flick [1, 13]: 5.8 ± 0.38 s | average latency, Tail Flick [1, 14]: 4.04 ± 0.36 s | average latency, Tail Flick [1, 15]: 7.54 ± 0.65 s | average latency, Tail Flick [1, 16]: 5.98 ± 0.41 s | average latency, Tail Flick [1, 17]: 5.08 ± 0.6 s

CCCCN(CCCC)C(=O)CCC(NC(=O)c1ccc(C#N)cc1)C(=O)O [Compound D-8]
percentage variation of latency of pain sensation (morphine analgesia; [5]): 29.0 ± 15.0% | percentage variation of latency of pain sensation (morphine analgesia; [6]): 50.9% | percentage variation of latency of pain sensation (morphine analgesia; [7]): 61.4 ± 22.0% | percentage variation of latency of pain sensation (morphine analgesia; [8]): 57.7 ± 18.0% | percentage variation of latency of pain sensation (morphine analgesia; [9]): 52.9 ± 20.0% | percentage variation of latency of pain sensation (morphine analgesia; [10]): 28.3 ± 12.0% | M (10-90) ± SE, mean percentage variation of latency (morphine analgesia; [11]): 46.7 ± 14.4% | Power ratio with respect to morphine alone (morphine analgesia): 1.56 | ED50 (concentration antagonising 50% of contracting effect of CCK-8) [2]: > 200 µg/mL | percentage variation in latency time (Effect %) ([3]; compound 10 mg/kg + morphine 5 mg/kg i.p., 24 h): 43.65% | percentage variation in latency time (Effect %) ([3]; compound 10 mg/kg + morphine 5 mg/kg i.p., 48 h): 32.80% | percentage variation in latency time (Effect %) ([3]; compound 10 mg/kg + morphine 5 mg/kg i.p., 72 h): 31.78% | percentage variation in latency time (Effect %) ([3]; compound 10 mg/kg + morphine 5 mg/kg i.p., 96 h): 35.45% | percentage variation in latency time (Effect %) ([3]; compound 10 mg/kg + morphine 5 mg/kg i.p., 120 h): 42.08% | percentage variation in latency time (Effect %) ([3]; compound 10 mg/kg + morphine 5 mg/kg i.p., 144 h): 29.33% | percentage variation in latency time (Effect %) ([3]; compound 10 mg/kg + morphine 5 mg/kg i.p., 168 h): 19.17% | percentage variation in latency time (Effect %) ([3]; compound 10 mg/kg + morphine 5 mg/kg i.p., time 0): 47.32%

N#Cc1ccc(C(=O)NC(CCC(=O)N2CCCCC2)C(=O)O)cc1 [Compound D-10]
percentage variation of latency of pain sensation (morphine analgesia; [5]): 41.0 ± 8.0% | percentage variation of latency of pain sensation (morphine analgesia; [6]): 58.6 ± 17.0% | percentage variation of latency of pain sensation (morphine analgesia; [7]): 59.8 ± 17.0% | percentage variation of latency of pain sensation (morphine analgesia; [8]): 62.7 ± 15.0% | percentage variation of latency of pain sensation (morphine analgesia; [9]): 47.0% | percentage variation of latency of pain sensation (morphine analgesia; [10]): 35.4 ± 11.0% | M (10-90) ± SE, mean percentage variation of latency (morphine analgesia; [11]): 50.8 ± 11.2% | Power ratio with respect to morphine alone (morphine analgesia): 1.70 | ED50 (concentration antagonising 50% of contracting effect of CCK-8) [2]: > 200 µg/mL

Cc1ccc(C(=O)NC(CCC(=O)N(C)C)C(=O)O)cc1C [Compound D-12]
percentage variation of latency of pain sensation (morphine analgesia; [5]): 45.4 ± 23% | percentage variation of latency of pain sensation (morphine analgesia; [6]): 63.9 ± 15% | percentage variation of latency of pain sensation (morphine analgesia; [7]): 84. ± 16% | percentage variation of latency of pain sensation (morphine analgesia; [8]): 100 ± 0% | percentage variation of latency of pain sensation (morphine analgesia; [9]): 78.5 ± 15% | percentage variation of latency of pain sensation (morphine analgesia; [10]): 56.1 ± 22% | M (10-90) ± SE, mean percentage variation of latency (morphine analgesia; [11]): 71.3 ± 20% | Power ratio with respect to morphine alone (morphine analgesia): 2.39 | ED50 (concentration antagonising 50% of contracting effect of CCK-8) [2]: > 300 µg/mL

CCCN(CCC)C(=O)CCC(NC(=O)c1ccc(C)c(C)c1)C(=O)O [Compound D-15]
percentage variation of latency of pain sensation (morphine analgesia; [5]): 43.5 ± 16% | percentage variation of latency of pain sensation (morphine analgesia; [6]): 48.7 ± 18% | percentage variation of latency of pain sensation (morphine analgesia; [7]): 72.6% | percentage variation of latency of pain sensation (morphine analgesia; [8]): 60.1 ± 23% | percentage variation of latency of pain sensation (morphine analgesia; [9]): 59.2 ± 18% | percentage variation of latency of pain sensation (morphine analgesia; [10]): 43.5 ± 24% | M (10-90) ± SE, mean percentage variation of latency (morphine analgesia; [11]): 54.6 ± 11% | Power ratio with respect to morphine alone (morphine analgesia): 1.83 | ED50 (concentration antagonising 50% of contracting effect of CCK-8) [2]: 245.0 µg/mL

CSCC[C@H](NC(=O)[C@H](Cc1ccccc1)NC(=O)CNC(=O)[C@@H](C)NC(=O)[C@@H](N)Cc1ccc(O)cc1)C(N)=O [DALA, D-ala-methionine-enkephalinamide, reference compound]
analgesic activity, Tail Flick ([4]; DALA 10 μg/kg ICV alone, 10'): 21.9 | analgesic activity, Tail Flick ([4]; DALA 10 μg/kg ICV alone, 20'): 25.9 | analgesic activity, Tail Flick ([4]; DALA 10 μg/kg ICV alone, 30'): 26.2 | analgesic activity, Tail Flick ([4]; DALA 10 μg/kg ICV alone, 45'): 26.0 | analgesic activity, Tail Flick ([4]; DALA 10 μg/kg ICV alone, 60'): 7.3 | analgesic activity, Tail Flick ([4]; DALA 10 μg/kg ICV alone, 90'): 5.0 | MEAN analgesic activity, Tail Flick ([4]; DALA 10 μg/kg ICV alone): 18.7 | analgesic activity, Tail Flick ([4]; DALA 10 mg/kg (ICV) as printed, alone, 10'): 4.1 | analgesic activity, Tail Flick ([4]; DALA 10 mg/kg (ICV) as printed, alone, 20'): 6.24 | analgesic activity, Tail Flick ([4]; DALA 10 mg/kg (ICV) as printed, alone, 30'): 9.19 | analgesic activity, Tail Flick ([4]; DALA 10 mg/kg (ICV) as printed, alone, 45'): 8.29 | analgesic activity, Tail Flick ([4]; DALA 10 mg/kg (ICV) as printed, alone, 60'): 6.20 | analgesic activity, Tail Flick ([4]; DALA 10 mg/kg (ICV) as printed, alone, 90'): 10.56 | MEAN analgesic activity, Tail Flick ([4]; DALA 10 mg/kg (ICV) as printed, alone): 7.51

CN1CC[C@]23c4c5ccc(O)c4O[C@H]2[C@@H](O)C=C[C@H]3[C@H]1C5 [Morphine, reference compound]
percentage variation of latency of pain sensation (morphine analgesia; 10', morphine 2 mg/kg alone): 10.8 ± 4.0% | percentage variation of latency of pain sensation (morphine analgesia; 10', morphine 2 mg/kg alone, listed as Morphene): 10.8% | percentage variation of latency of pain sensation (morphine analgesia; 20', morphine 2 mg/kg alone): 54.2 ± 17.0% | percentage variation of latency of pain sensation (morphine analgesia; 20', morphine 2 mg/kg alone, listed as Morphene): 54.2 ±17% | percentage variation of latency of pain sensation (morphine analgesia; 30', morphine 2 mg/kg alone): 46.6 ± 21.0% | percentage variation of latency of pain sensation (morphine analgesia; 30', morphine 2 mg/kg alone, listed as Morphene): 46.6 ± 21% | percentage variation of latency of pain sensation (morphine analgesia; 45', morphine 2 mg/kg alone): 41.7 ± 16.0% | percentage variation of latency of pain sensation (morphine analgesia; 45', morphine 2 mg/kg alone, listed as Morphene): 41.7% | percentage variation of latency of pain sensation (morphine analgesia; 60', morphine 2 mg/kg alone): 32.0% | percentage variation of latency of pain sensation (morphine analgesia; 60', morphine 2 mg/kg alone, listed as Morphene): 32 ± 17% | percentage variation of latency of pain sensation (morphine analgesia; 90', morphine 2 mg/kg alone): -6.4 ± 10.0% | percentage variation of latency of pain sensation (morphine analgesia; 90', morphine 2 mg/kg alone, listed as Morphene): -6.4 ± 10% | M (10-90) ± SE, mean percentage variation of latency (morphine analgesia; morphine 2 mg/kg alone): 29.8 ± 23.0% | M (10-90) ± SE, mean percentage variation of latency (morphine analgesia; morphine 2 mg/kg alone, listed as Morphene): 29.8% | day at which activity reaches level of inactivity (0) ([3]; from the straight lines of regression): fell to 0 on the sixth day of treatment | percentage variation in latency time (Effect %) ([3]; morphine 5 mg/kg i.p. alone, 24 h): 42.09% | percentage variation in latency time (Effect %) ([3]; morphine 5 mg/kg i.p. alone, 48 h): 26.54% | percentage variation in latency time (Effect %) ([3]; morphine 5 mg/kg i.p. alone, 72 h): 19.96% | percentage variation in latency time (Effect %) ([3]; morphine 5 mg/kg i.p. alone, 96 h): 10.79% | percentage variation in latency time (Effect %) ([3]; morphine 5 mg/kg i.p. alone, 120 h): 4.45% | percentage variation in latency time (Effect %) ([3]; morphine 5 mg/kg i.p. alone, 168 h): 2.12% | percentage variation in latency time (Effect %) ([3]; morphine 5 mg/kg i.p. alone, time 0): 58.03% | activity versus controls / morphine group during treatment ([3]; up to 168 hours): not significantly different from the control group
